Common to all, as to format: cell-based
In assay [1] the test system is human islets in ABO-compatible fresh human blood. Briefly: Tubing loop model: human islet perifusion with ABO-compatible fresh human blood. More on the design: TAT: unit not given here. The settings on record: after 60 min human islet perifusion, Mean ± SE(M). As to the method: (§1) All the in vitro experiments for studies of islets contacting whole blood were performed in a tubing loop model. The experimental model is a modification of a model for testing biomaterials that has previously been described (J. Clin. Immunol. 16, 223-230 (1996)). Tubings made of polyvinylchloride (PVC, i.d.=6.3 mm, length=300 mm) were modified with immobilized heparin according to a method developed by Corline Systems AB (Uppsala, Sweden) as disclosed in international patent application no WO93/05793. Briefly, the polymer surface is modified with a high molecular weight amine compound to add primary amine groups to the surface. A soluble conjugate prepared by covalent binding of approximately 60 mol of heparin per mol of a straight-chained polyallylamine is irreversibly bonded onto the amine surface of the tubings. This procedure results in a total surface concentration of heparin of approximately 0.5 μg/cm^2. By using such heparin modified tubings it is possible to incubate the tubings with non-anticoagulated fresh human blood in a rocking device at 37° C. for one hour with only moderate activation of blood (c.f. control column in Table 1 A and 1 B below). Unmodified tubings will invariably induce complete clotting at these experimental conditions. Addition of human islets or porcine adult or fetal islets lead to some remarkable observations. Complete clotting invariably occurred with a total loss of platelets, a sharp increase in the formation of TAT and a very significant increase in the markers of the early contact phase (FXIIa and FXIa) of coagulation (C.f. Table 1 A and 1 B).
(§2) Sixty ml of non-anticoagulated blood was collected from healthy blood donors using heparin-coated equipment. U-shaped tubings with a total volume of nine ml were filled with eight ml of blood immediately followed by addition of isolated human islets or porcine adult or porcine fetal islets (500 IEQ). The tubings were then closed into loops using connectors of titanium furnished with immobilised heparin. The tubing loops were placed vertically in a rocking device and the complete apparatus was placed in an incubator at 37° C. for up to sixty minutes. At the end of the rocking period blood was collected in EDTA and the number of cells were counted in a automatic cell counter. The blood samples were then centrifuged at 4° C. (3290×g, 20 min) and EDTA plasma was collected and immediately put at −70° C. Islets retrieved after blood perifusion were prepared for immunohistochemistry.

Assay [2] relates to adult porcine islets in fresh human blood. Briefly: Tubing loop model: adult porcine islet perifusion with fresh human blood. Particulars: for Platelets: blood supplemented with additive, Mean SE(M); for TAT: thrombin-antithrombin. More on the design: FNIIa-AT / TAT: unit not given here. As for the experimental part: as §1, §2
In assay [3] the test system is platelets in platelet rich plasma (PRP). The experiment in a line: Islet-induced platelet aggregation in platelet rich plasma (aggregometer). The settings on record: agent added to PRP before islets. As for the experimental part: Platelets in platelet rich plasma (PRP) and gel filtered platelets were tested in an aggregometer. Islets were added to PRP and thereafter analysed in the aggregometer. It was shown that the islets induced aggregation of the platelets (FIG. 1) and that platelets number in the sample were reduced from 375×10^9 to 236×10^9. If purified platelets without plasma proteins were used in combination with islets no aggregation and reduction in the platelet count were observed. In attempts to identify the mechanism behind the induced aggregation, an RGDS tetrapeptide to inhibit integrin binding and a monoclonal antibody against Fc receptors on platelets were used.

The mark [4] stands for this setting: after 60 min adult porcine islet perifusion.

Results on three molecules are retold here after US7981873B1, “Use within transplantation surgery” (Corline Systems AB, priority 2000, dated 2011).

With heparin, the Platelets in assay [1] (blood supplemented with additive) is listed as 114 ± 17 ×10^9. In assay [1], this molecule registered a C3a of 565 ± 143.6 ng/mL, a C5b-9 of 147 ± 39.6 AU/mL, an FXIIa-AT of 5.4e-06 ± 1.7e-06 M and an FXIa-AT of 3.4e-07 ± 1.2e-07 M. Moreover, in assay [1], the Lymph. was 1.60 ± 0.20 ×10^9, the Mono. was 0.28 ± 0.06 ×10^9 and the Neutra. was 2.56 ± 0.43 ×10^9. This molecule also had a TAT in assay [1] (thrombin-antithrombin) of 4467 ± 2285. For the same molecule, in assay [2] (setting [4]), the C3a came out at 486 ± 139 ng/mL, the C5b-9 is reported as 82 ± 22 AU/mL, the FXIa-AT came out at 0.53 ± 0.26 µM and the Lymphcytes is recorded as 1.88 ± 0.11 ×10^9. Further, in assay [2] (setting [4]), the Monocytes is 0.35 ± 0.05 ×10^9, the Neutrophils was 3.00 ± 0.19 ×10^9, the Platelets is 145 ± 13.0 ×10^9 and the TAT amounted to 505 ± 162. In addition, in assay [2] (in words, summary of Tables 1A and 1B), the clotting entry is reported as “prevented clotting”. In assay [2] (in words, summary of Tables 1A and 1B, listed as Soluble heparin), the “platelet count and generation of TAT” value was “remarkable improvement”. In addition, the “platelet count and generation of TAT” value in assay [2] (in words, summary of Tables 1A and 1B, listed as soluble heparin) was “remarkable improvement in preservation of the number of platelets and reduced generation of TAT”.
As to RGDS [RGDS peptide], the “consumption of platelets when islets were added to PRP” value in assay [3] (FIG. 2) is “totally abolished”. For the same molecule, the “aggregation of platelets when islets were added to PRP” value in assay [3] (FIG. 2, FIG. 3) is on record as “totally abolished”.

B1: C1-INA: the complement inhibitor C1 inactivator (C1-INA) (protein, UniProt P05155 23-500, looked up)
Plasma protease C1 inhibitor: NPNATSSSSQDPESLQDRGEGKVATTVISKMLFVEPILEVSSLPTTNSTTNSATKITANTTDEPTTQPTTEPTTQPTIQPTQPTTQLPTDSPTQPTTGSFCPGPVTLCSDLESHSTEAVLGDALVDFSLKLYHAFSAMKKVETNMAFSPFSIASLLTQVLLGAGENTKTNLESILSYPKDFTCVHQALKGFTTKGVTSVSQIFHSPDLAIRDTFVNASRTLYSSSPRVLSNNSDANLELINTWVAKNTNNKISRLLDSLPSDTRLVLLNAIYLSAKWKTTFDPKKTRMEPFHFKNSVIKVPMMNSKKYPVAHFIDQTLKAKVGQLQLSHNLSLVILVPQNLKHRLEDMEQALSPSVFKAIMEKLEMSKFQPTLLTLPRIKVTTSQDMLSIMEKLEFFDFSYDLNLCGLTEDPDLQVSAMQHQTVLELTETGVEAAAASAISVARTLLVFEVQQPFLFVLWDQQHKFPVFMGRVYDPRA
For the molecule B1, in assay [2] (setting [4]), the C3a worked out at 1094 ± 78 ng/mL, the C5b-9 is reported as 183 ± 29 AU/mL, the FNIIa-AT came to 19.65 ± 0.45 and the FXIa-AT is 2.95 ± 0.15. Further, in assay [2] (setting [4]), the Lymphcytes is reported as 1.23 ± 0.38 ×10^9, the Monocytes is 0.15 ± 0.01 ×10^9, the Neutrophils is 0.41 ± 0.13 ×10^9 and the Platelets is 4 ± 0 ×10^9. This molecule registered a TAT in assay [2] (setting [4]) of 30250 ± 3450. In assay [2] (in words, summary of Table 1B), the complement activation entry is given as “reduced complement activation” and the “effect on the coagulation parameters” value is “no detectable effect”.
